Data published in US8604217B2, “Compound, a process for its preparation, a pharmaceutical composition, use of a compound, a method for modulating or regulating serine/threonine kinases and a serine/threonine kinases modulating agent” (Selvita S.A., priority 2009, dated 2013).

Columns and labels:
Test in all cases: KinaseProfiler kinase panel
Type in all cases: biochemical
[1] = molecular target: CDK1/cyclinB(h) (Homo sapiens (Human), UniProt P06493)
[2] = molecular target: AMPKα1(h) (Homo sapiens (Human), UniProt Q13131)
[3] = molecular target: Tie2 (h) (Homo sapiens (Human), UniProt Q02763)
Sequence of Tie2 (h) (Q02763 23-1124): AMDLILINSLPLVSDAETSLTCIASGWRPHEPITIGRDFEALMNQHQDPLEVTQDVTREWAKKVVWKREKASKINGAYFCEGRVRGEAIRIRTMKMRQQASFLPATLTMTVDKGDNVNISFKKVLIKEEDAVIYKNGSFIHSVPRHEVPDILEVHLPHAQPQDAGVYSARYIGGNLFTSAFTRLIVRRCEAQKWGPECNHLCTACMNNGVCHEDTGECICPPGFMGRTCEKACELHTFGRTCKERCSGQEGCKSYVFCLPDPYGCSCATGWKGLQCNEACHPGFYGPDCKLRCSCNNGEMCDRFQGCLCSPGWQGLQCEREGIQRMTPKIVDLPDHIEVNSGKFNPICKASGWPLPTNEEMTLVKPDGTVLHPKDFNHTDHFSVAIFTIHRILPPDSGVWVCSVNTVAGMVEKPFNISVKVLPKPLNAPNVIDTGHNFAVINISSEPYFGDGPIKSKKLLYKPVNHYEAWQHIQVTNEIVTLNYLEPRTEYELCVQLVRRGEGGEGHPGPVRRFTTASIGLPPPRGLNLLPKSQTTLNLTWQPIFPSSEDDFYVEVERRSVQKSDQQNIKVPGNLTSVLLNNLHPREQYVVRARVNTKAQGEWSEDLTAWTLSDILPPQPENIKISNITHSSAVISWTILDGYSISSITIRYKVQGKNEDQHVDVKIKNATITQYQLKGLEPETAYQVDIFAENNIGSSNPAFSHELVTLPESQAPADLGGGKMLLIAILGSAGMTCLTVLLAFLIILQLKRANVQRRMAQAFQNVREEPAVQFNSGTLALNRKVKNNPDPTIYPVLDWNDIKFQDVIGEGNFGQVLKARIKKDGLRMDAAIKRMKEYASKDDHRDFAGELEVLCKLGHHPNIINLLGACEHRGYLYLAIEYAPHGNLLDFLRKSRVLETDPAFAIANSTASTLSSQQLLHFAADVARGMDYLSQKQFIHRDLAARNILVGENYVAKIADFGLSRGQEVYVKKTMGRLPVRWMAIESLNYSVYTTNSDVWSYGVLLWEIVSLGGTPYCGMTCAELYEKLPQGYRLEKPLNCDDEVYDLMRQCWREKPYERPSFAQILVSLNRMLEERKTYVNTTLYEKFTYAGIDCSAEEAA

[4] = molecular target: DMPK(h) (Homo sapiens (Human), UniProt Q09013)
[5] = molecular target: ACK1(h) (Homo sapiens (Human), UniProt Q07912)
[6] = molecular target: Syk(h) (Homo sapiens (Human), UniProt P43405)
[7] = molecular target: LIMK1(h) (Homo sapiens (Human), UniProt P53667)
[8] = molecular target: PDGFRα(V561D)(h) (Homo sapiens (Human), UniProt P16234, V561D)
[9] = molecular target: EphB1(h) (Homo sapiens (Human), UniProt P54762)
[10] = molecular target: EphA8(h) (Homo sapiens (Human), UniProt P29322)
[11] = molecular target: Fer(h) (Homo sapiens (Human), UniProt P16591)
Sequence of Fer(h) (P16591 whole entry): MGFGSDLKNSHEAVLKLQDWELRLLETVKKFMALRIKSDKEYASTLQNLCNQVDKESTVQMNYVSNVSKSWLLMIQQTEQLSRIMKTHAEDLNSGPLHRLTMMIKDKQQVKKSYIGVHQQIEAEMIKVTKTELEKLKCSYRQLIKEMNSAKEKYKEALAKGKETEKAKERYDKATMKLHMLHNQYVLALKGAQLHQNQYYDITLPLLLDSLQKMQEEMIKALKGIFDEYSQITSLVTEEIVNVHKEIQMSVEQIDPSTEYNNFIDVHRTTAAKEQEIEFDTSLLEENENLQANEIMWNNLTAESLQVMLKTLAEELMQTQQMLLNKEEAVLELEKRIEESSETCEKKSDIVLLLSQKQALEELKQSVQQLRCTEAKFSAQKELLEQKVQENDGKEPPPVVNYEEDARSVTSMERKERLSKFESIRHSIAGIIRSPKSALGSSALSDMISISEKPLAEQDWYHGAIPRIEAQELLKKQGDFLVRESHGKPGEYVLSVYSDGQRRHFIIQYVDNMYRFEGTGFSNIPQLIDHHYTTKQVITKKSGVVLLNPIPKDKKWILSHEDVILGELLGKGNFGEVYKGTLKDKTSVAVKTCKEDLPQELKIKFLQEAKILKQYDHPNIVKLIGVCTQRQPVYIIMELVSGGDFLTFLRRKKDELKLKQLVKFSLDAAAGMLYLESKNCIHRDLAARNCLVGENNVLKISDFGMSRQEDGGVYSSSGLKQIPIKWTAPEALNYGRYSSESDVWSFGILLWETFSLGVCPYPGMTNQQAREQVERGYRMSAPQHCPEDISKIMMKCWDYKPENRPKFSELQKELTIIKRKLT

[12] = molecular target: CK2α2(h) (Homo sapiens (Human), UniProt P19784)
[13] = molecular target: PAK5(h) (Homo sapiens (Human), UniProt Q9P286)
[14] = molecular target: ALK4(h) (Homo sapiens (Human), UniProt P36896)
[15] = molecular target: Fms(Y969C)(h) (Homo sapiens (Human), UniProt P07333, Y969C)
[16] = molecular target: PKBγ(h) (Homo sapiens (Human), UniProt Q9Y243)
[17] = molecular target: MKK7β(h) (Homo sapiens (Human), UniProt O14733)
[18] = molecular target: Plk3(h) (Homo sapiens (Human), UniProt Q9H4B4)
[19] = molecular target: PIM-2(h) (Homo sapiens (Human), UniProt Q9P1W9)
[20] = molecular target: Rsk3(h) (Homo sapiens (Human), UniProt Q15349)
Sequence of Rsk3(h) (Q15349 whole entry): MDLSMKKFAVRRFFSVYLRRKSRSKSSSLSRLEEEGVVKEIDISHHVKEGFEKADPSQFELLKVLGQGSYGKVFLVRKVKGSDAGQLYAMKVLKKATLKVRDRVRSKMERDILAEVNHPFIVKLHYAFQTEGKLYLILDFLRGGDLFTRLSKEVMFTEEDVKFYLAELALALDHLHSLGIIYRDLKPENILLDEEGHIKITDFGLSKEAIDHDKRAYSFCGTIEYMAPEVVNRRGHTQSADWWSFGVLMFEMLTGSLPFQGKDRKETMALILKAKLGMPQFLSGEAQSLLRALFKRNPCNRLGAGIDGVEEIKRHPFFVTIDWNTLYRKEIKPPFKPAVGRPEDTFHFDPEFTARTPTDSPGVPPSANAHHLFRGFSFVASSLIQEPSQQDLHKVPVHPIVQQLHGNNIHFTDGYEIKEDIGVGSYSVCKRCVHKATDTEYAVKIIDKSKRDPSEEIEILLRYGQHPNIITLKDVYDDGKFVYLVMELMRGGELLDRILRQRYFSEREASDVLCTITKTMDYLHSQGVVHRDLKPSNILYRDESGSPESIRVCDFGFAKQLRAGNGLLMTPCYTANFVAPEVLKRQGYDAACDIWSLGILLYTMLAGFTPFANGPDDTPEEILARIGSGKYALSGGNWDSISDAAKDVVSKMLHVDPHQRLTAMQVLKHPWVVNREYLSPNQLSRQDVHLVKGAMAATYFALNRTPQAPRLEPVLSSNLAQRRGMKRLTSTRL

[21] = molecular target: ULK3(h) (Homo sapiens (Human), UniProt Q6PHR2)
[22] = molecular target: TSSK2(h) (Homo sapiens (Human), UniProt Q96PF2)
[23] = molecular target: PDGFRα(D842V)(h) (Homo sapiens (Human), UniProt P16234, D842V)
[24] = molecular target: ALK(h) (Homo sapiens (Human), UniProt Q9UM73)
[25] = molecular target: EGFR(L861Q)(h) (Homo sapiens (Human), UniProt P00533, L861Q)
[26] = molecular target: SGK3(h) (Homo sapiens (Human), UniProt Q96BR1)
[27] = molecular target: FGFR3(h) (Homo sapiens (Human), UniProt P22607)
[28] = molecular target: ROCK-II(r) (Rattus norvegicus (Rat), UniProt Q62868)
[29] = molecular target: CK1δ(h) (Homo sapiens (Human), UniProt P48730)
Sequence of CK1δ(h) (P48730 whole entry): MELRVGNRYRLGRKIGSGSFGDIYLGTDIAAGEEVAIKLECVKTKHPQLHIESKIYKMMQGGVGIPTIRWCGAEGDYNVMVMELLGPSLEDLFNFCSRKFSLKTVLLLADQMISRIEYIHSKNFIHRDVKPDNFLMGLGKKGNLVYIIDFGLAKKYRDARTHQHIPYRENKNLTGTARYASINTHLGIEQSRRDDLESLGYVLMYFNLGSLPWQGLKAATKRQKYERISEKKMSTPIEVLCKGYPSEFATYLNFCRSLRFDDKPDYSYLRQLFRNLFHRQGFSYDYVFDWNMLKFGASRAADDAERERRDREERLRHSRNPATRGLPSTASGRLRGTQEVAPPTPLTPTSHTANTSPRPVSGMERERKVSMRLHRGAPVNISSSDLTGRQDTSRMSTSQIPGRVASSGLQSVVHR

[30] = molecular target: SAPK2b(h) (Homo sapiens (Human), UniProt Q15759)
Sequence of SAPK2b(h) (Q15759 whole entry): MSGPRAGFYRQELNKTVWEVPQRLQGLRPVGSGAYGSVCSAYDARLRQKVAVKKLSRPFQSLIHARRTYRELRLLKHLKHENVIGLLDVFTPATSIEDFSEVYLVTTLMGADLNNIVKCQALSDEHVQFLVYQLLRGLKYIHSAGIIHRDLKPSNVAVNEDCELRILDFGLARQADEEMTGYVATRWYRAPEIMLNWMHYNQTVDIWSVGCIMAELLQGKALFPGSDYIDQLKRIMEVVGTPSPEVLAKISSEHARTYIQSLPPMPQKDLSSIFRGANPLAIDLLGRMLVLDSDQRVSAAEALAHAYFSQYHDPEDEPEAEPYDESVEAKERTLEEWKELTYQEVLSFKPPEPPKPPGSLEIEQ

[31] = molecular target: DAPK1(h) (Homo sapiens (Human), UniProt P53355)
[32] = molecular target: Abl(h) (Homo sapiens (Human), UniProt P00519)
[33] = molecular target: PIM-1(h) (Homo sapiens (Human), UniProt P11309)
[34] = molecular target: DCAMKL2(h) (Homo sapiens (Human), UniProt Q8N568)
[35] = molecular target: GRK5(h) (Homo sapiens (Human), UniProt P34947)
Sequence of GRK5(h) (P34947 whole entry): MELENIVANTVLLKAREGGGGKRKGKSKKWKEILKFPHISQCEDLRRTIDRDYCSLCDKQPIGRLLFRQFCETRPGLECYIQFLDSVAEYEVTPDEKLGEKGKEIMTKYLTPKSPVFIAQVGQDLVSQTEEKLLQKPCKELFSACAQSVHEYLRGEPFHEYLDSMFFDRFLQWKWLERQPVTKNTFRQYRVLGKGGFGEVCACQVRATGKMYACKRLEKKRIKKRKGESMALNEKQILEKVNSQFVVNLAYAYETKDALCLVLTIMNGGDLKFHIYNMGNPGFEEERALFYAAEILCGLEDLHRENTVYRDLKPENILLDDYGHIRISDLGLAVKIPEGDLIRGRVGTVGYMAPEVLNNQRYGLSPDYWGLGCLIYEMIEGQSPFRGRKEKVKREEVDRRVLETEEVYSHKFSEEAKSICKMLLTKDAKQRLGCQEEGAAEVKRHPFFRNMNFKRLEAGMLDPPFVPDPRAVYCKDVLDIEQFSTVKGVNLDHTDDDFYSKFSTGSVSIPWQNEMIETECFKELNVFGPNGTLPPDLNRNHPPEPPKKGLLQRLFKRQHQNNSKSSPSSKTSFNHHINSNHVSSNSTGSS

[36] = molecular target: PDGFRα(h) (Homo sapiens (Human), UniProt P16234)
[37] = molecular target: TRKA(h) (Homo sapiens (Human), UniProt P04629)
[38] = molecular target: IR(h) (Homo sapiens (Human), UniProt P06213)
[39] = molecular target: PKBβ(h) (Homo sapiens (Human), UniProt P31751)
[40] = molecular target: NEK3(h) (Homo sapiens (Human), UniProt P51956)

Sequence of CDK1/cyclinB(h) (P06493 whole entry): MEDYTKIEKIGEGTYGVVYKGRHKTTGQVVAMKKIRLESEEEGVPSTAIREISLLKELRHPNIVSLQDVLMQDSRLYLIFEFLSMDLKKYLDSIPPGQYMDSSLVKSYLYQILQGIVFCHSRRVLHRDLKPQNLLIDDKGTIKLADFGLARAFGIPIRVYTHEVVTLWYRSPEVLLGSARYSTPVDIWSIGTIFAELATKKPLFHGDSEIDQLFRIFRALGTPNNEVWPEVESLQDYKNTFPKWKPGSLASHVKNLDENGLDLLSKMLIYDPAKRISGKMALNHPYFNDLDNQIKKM
Sequence of CDK1/cyclinB(h) (P14635 whole entry partner): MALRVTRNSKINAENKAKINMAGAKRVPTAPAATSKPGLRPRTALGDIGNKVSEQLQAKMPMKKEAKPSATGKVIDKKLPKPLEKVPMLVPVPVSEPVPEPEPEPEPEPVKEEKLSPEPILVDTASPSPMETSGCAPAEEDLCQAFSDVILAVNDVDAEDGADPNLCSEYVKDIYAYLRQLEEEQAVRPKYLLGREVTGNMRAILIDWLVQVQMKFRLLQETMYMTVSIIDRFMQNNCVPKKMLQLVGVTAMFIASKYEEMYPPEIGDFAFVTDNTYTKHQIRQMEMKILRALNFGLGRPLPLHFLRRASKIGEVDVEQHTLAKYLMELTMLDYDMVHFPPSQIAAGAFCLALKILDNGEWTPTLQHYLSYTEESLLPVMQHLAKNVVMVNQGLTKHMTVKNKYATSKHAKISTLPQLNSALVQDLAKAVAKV

In the case of `CCn1c(N2CCNCC2)nc2c(Br)c(Br)c(Br)c(Br)c21` [Compound 416, 4,5,6,7-tetrabromo-1-ethyl-2-(piperazin-1-yl)-1H-benzo[d]imidazole], the remaining activity at 1 µM [1] was 7%, the remaining activity at 1 µM [2] was 82% and the remaining activity at 1 µM [3] was 92%. For the same compound, the remaining activity at 1 µM [4] was 97%, the remaining activity at 1 µM [5] was 97% and the remaining activity at 1 µM [6] was 95%. The remaining activity at 1 µM [7] was 98%, the remaining activity at 1 µM [8] was 68% and the remaining activity at 1 µM [9] was 87%. It also gave a remaining activity at 1 µM [10] of 102%, a remaining activity at 1 µM [11] of 100% and a remaining activity at 1 µM [12] of 73%. It also gave a remaining activity at 1 µM [13] of 93%, a remaining activity at 1 µM [14] of 112% and a remaining activity at 1 µM [15] of 92%. It also gave a remaining activity at 1 µM [16] of 39%, a remaining activity at 1 µM [17] of 95% and a remaining activity at 1 µM [18] of 101%. The remaining activity at 1 µM [19] was 10%, the remaining activity at 1 µM [20] was 71% and the remaining activity at 1 µM [21] was 84%. It also gave a remaining activity at 1 µM [22] of 95%, a remaining activity at 1 µM [23] of 17% and a remaining activity at 1 µM [24] of 106%. It also gave a remaining activity at 1 µM [25] of 27%, a remaining activity at 1 µM [26] of 92% and a remaining activity at 1 µM [27] of 105%. It also gave a remaining activity at 1 µM [28] of 71%, a remaining activity at 1 µM [29] of 62% and a remaining activity at 1 µM [30] of 91%. The remaining activity at 1 µM [31] was 100%, the remaining activity at 1 µM [32] was 107% and the remaining activity at 1 µM [33] was 1%. It also gave a remaining activity at 1 µM [34] of 101%, a remaining activity at 1 µM [35] of 96% and a remaining activity at 1 µM [36] of 98%. It also gave a remaining activity at 1 µM [37] of 35%, a remaining activity at 1 µM [38] of 104% and a remaining activity at 1 µM [39] of 90%. The remaining activity at 1 µM [40] was 85%.
